Read-outs that look alike come from different tables or passages of the source.
Key:
[1] = Drastic test with pure solid form II at 80° C. for two days in the absence of light; format: physicochemical
Procedure: Drastic Test with Pure Solid Form II at 80° C. for Two Days (Carried Out in the Absence of Light).

[2] = Transformation of form II suspended in water (strong heating or prolonged treatment); format: physicochemical; details: suspended in water and strongly heated, or suspended in water and subjected to prolonged treatment
Excerpt: 27, 1997 and 2nd edition Nov. 8, 2000) and recognised on the world scale for the evaluation of the stability of pharmaceutical substances.
Form I of torsemide is obtainable from form II of torsemide as above according to the instructions of Kondo, namely by suspension of an aliquot of form II in water (approx. 23 parts by weight) and subsequent stirring for 20 days at room temperature. The melting point of form I of torsemide, used by the inventors of the present patent application, measured with a Büchi B-540 according to USP class 1a (temperature increments of 1° C.±0.5° C./min starting from 10° C. from the expected melting point, inserting the sample at 5° C. from the melting point, then 1° C.±0.5° C./min until reaching the melting point), is 160.1°–160.5° C.

[3] = Accelerated ICH stability test with pure solid form II, polymorphic transformation followed by FT-IR in KBr; format: physicochemical; details: 40°±2C and 75±5% relative humidity, over 6 months
Excerpt: For detectable polymorphic transformations is intended transformations visible from changes of the FT-IR spectrum of form II of torsemide registered in KBr. Specifically, the formation of a contamination of 1% or greater (by weight) of form I of torsemide in a sample of pure form II of torsemide would be a detectable polymorphic transformation by means of the relative change of the FT-IR spectrum registered in KBr which would imply the appearance of a peak in the position at 1697 cm^−1. Accelerated Test with Pure Solid Form II at 40°±2C and 75±5% of Relative Humidity. This type of test which is prescribed according to ICH (Q1A, “Stability testing of new Drug Substances and new Drug Products”, 1st edition Oct. 27, 1997 and 2nd edition Nov. 8, 2000) allows, according to internationally recognised procedures, to extrapolate the results obtained with this accelerated test to a mock storage period at room temperature for over 2 years. The inventors of the present patent application have subjected a series of pure samples of form II of torsemide to this test, and have assayed with the frequency and to the prescribed terms, the possible polymorphic transformations of the samples through registration of the FT-IR spectra in KBr on a Jasco apparatus.

[4] = Kondo et al. 1994, susceptibility to humidity/water, cited from earlier work
[5] = Prolonged ICH stability test with pure solid form II, polymorphic transformation followed by FT-IR in KBr; format: physicochemical; details: 25°±2C and 60±5% relative humidity, after 13 months
Procedure: Prolonged Test with Pure Solid Form II at 25°±2C and 60±5% of Relative Humidity. This type of test which is prescribed according to ICH (Q1A, “Stability testing of new Drug Substances and new Drug Products”, 1st edition Oct. 27, 1997 and 2nd edition Nov. 8, 2000) follows possible degradation of the samples under more mild conditions, but over prolonged periods. The inventors of the present patent application have subjected a series of pure samples of form II of torsemide to this test, and have assayed with the frequency and to the prescribed terms, the possible polymorphic transformations of the samples through the registration of the FT-IR spectra in KBr on the Jasco apparatus.

polymorphic transformation in aqueous suspension [2] | polymorphic transformation (FT-IR in KBr, Jasco) [3] | Compound | polymorphic transformation [1] | relative stability of the polymorphic form ([4]; listed as form II) | polymorphic transformation (FT-IR in KBr, Jasco) [5] | relative stability of the polymorphic form [4]
transforms into form I | no detectable polymorphic transformation | Cc1cccc(Nc2ccncc2S(=O)(=O)NC(=O)NC(C)C)c1 [form II of torsemide, 1-isopropyl-3-[(4-m-toluidino-3-pyridyl)sulphonyl]-urea] | does not show a detectable polymorphic transformation | poorly stable | could not see any detectable polymorphic transformation | 
 |  | Cc1cccc(Nc2ccncc2S(=O)(=O)NC(=O)NC(C)C)c1 [form I, 1-isopropyl-3-[(4-m-toluidino-3-pyridyl)sulphonyl]-urea] |  |  |  | sufficiently stable
